Assay results taken from patent publication US7435837B2, “Dihydrobenzofuranyl alkanamine derivatives and methods for using same” (Wyeth, priority 2003, dated 2008).
Values joined by “and” are separate entries in the source; they are usually repeats but may differ in a detail not shown here. Equal entries are not always repeated. Structures can show the parent of a compound that is named as a salt.

Tests used:
[1] = biological target: T1, human 5-hydroxytryptamine-2C (h5-HT2C) receptor (Homo sapiens, UniProt P28335); assay: [125I]DOI binding to membranes of CHO cells expressing the human 5-HT2C receptor; conditions: [125I]DOI radioligand, CHO cell membranes, room temperature 60 min; read-out: 5-HT2C Affinity Ki
T1 construct: expressed in transfected cells; host or cells: CHO (Chinese Hamster Ovary) cells; membranes
T1 sequence (P28335 33-458): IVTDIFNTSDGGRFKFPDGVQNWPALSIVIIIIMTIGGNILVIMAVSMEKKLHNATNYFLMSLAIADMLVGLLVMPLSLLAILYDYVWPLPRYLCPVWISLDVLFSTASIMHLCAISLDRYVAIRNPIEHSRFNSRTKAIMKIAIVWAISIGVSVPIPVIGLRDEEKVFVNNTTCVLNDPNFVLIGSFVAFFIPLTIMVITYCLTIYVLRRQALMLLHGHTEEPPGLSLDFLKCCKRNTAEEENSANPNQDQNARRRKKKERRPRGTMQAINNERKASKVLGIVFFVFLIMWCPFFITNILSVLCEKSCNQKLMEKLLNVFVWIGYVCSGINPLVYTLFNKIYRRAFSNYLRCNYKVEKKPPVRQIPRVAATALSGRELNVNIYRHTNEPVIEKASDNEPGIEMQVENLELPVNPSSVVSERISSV

[2] = biological target: T2, human 5-HT2C receptor (Homo sapiens, UniProt P28335); assay: 5-HT2C receptor-stimulated calcium mobilization (FLIPR) in CHO cells; type: cell-based; conditions: for Emax: CHO, read-out: 5-HT2C Function Emax (%); for Emax / 5-HT2C Function Emax (%): percentage of the response observed with a maximally effective concentration of 5-HT; for EC50: calcium mobilization, CHO cells stably expressing human 5-HT2C, read-out: 5-HT2C Function EC50;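 as to all read-outs here: Fluo-3-AM fluorescence read on FLIPR every 1 s, agonist added after 10 baseline reads, response taken as peak minus lowest raw fluorescence count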
T2 sequence (P28335 33-458): T1 sequence (P28335 33-458)

SMILES	melting point	Ki [1] [nM]	Emax [2] [%]	EC50 [2] [nM]	5-HT2C Function Emax (%) [2] [%]
NCC1Cc2ccc(-c3ccccc3)cc2O1 (racemic) (as salt: hydrobromid) [Example 31, (±)-(6-phenyl-2,3-dihydro-1-benzofuran-2-yl)methanamine]	218 to 221 °C	–	–	–	–
NCC1Cc2c(cccc2-c2ccccc2)O1 (racemic) (as salt: hydrochloride) [Example 1, (±)-1-(4-phenyl-2,3-dihydro-1-benzofuran-2-yl)methanamine]	229 to 230 °C	–	–	–	–
Cc1ccccc1-c1cccc2c1CC(CN)O2 (racemic) (as salt: hydrochloride) [Example 4, (±)-1-[4-(2-methylphenyl)-2,3-dihydro-1-benzofuran-2-yl]methanamine]	231 to 234 °C	–	–	–	–
COc1cccc2c1OC(CN)C2 (racemic) (as salt: hydrochloride) [Example 7, (±)-1-(7-methoxy-2,3-dihydro-1-benzofuran-2-yl)methanamine]	168 to 171 °C	–	–	–	–
COc1ccc(-c2cccc3c2OC(CN)C3)c(OC)c1 (single isomer, unassigned; (-)) [Example 144, (−)-1-[7-(2,4-dimethoxyphenyl)-2,3-dihydro-1-benzofuran-2-yl]methanamine]	–	6.1	90	4	–
NCC1Cc2cccc(-c3ccc(F)cc3F)c2O1 (single isomer, unassigned; (-)) [Example 148, (−)-1-[7-(2,4-difluorophenyl)-2,3-dihydro-1-benzofuran-2-yl]methanamine]	–	12	–	290	70
NCC1Cc2cccc(-c3ccc(Cl)cc3Cl)c2O1 (single isomer, unassigned; (-)) [Example 149, (−)-1-[7-(2,4-dichlorophenyl)-2,3-dihydro-1-benzofuran-2-yl]methanamine]	–	0.15	100	0.97	–
NCC1Cc2cc(F)cc(-c3ccccc3C(F)(F)F)c2O1 (single isomer, unassigned; (-)) [Example 151, (−)-1-{5-fluoro-7-[2-(trifluoromethyl)phenyl]-2,3-dihydro-1-benzofuran-2-yl}methanamine]	–	1.1	–	27	100
COc1cccc(-c2cccc3c2OC(CN)C3)c1OC (single isomer, unassigned; (-)) [Example 156]	–	4.7	90	6	–
Cc1cc(Cl)ccc1-c1cccc2c1OC(CN)C2 (single isomer, unassigned; (-)) [Example 159, (−)-{[7-(4-chloro-2-methylphenyl)-2,3-dihydro-1-benzofuran-2-yl]methyl}amine]	–	12	–	636	80
NCC1Cc2cccc(-c3cc(Cl)ccc3Cl)c2O1 (single isomer, unassigned; (-)) [Example 165, (−)-{[7-(2,5-dichlorophenyl)-2,3-dihydro-1-benzofuran-2-yl]methyl}amine]	–	18	–	80	70
NCC1Cc2cc(F)cc(-c3cccnc3)c2O1 (single isomer, unassigned; (-)) [Example 207, (−)-[(5-fluoro-7-pyridin-3-yl-2,3-dihydro-1-benzofuran-2-yl)methyl]amine]	–	128	80	112	–
Cc1cccc(C)c1-c1cc(F)cc2c1OC(CN)C2 (single isomer, unassigned; (-)) [Example 229, (−)-{[7-(2,6-dimethylphenyl)-5-fluoro-2,3-dihydro-1-benzofuran-2-yl]methyl}amine]	–	0.4	–	6	100

Results, then the molecule that gave them:

melting point	Ki [1] [nM]	Emax [2] [%]	EC50 [2] [nM]	5-HT2C Function Emax (%) [2] [%]	SMILES
156 to 158 °C	–	–	–	–	CN(C)C[C@H]1Cc2cc(F)cc(-c3c(Cl)cccc3Cl)c2O1 (as salt: hydrochloride) [Example 547, (R)-[7-(2,6-dichloro-phenyl)-5-Fluoro-2,3-dihydro-benzofuran-2-ylmethyl]dimethylamine]
148 to 150 °C	–	–	–	–	Cc1ccc(Cl)cc1-c1cc(F)cc2c1O[C@@H](CN)C2 (as salt: hydrochloride) [Example 548, {[(2R)-7-(5-chloro-2-methylphenyl)-5-fluoro-2,3-dihydro-1-benzofuran-2-yl]methyl}amine]
183 to 185 °C	–	–	–	–	Cc1cc(Cl)ccc1-c1cc(F)cc2c1O[C@@H](CN)C2 (as salt: hydrochloride) [Example 549, {[(2R)-7-(4-chloro-2-methylphenyl)-5-fluoro-2,3-dihydro-1-benzofuran-2-yl]methyl}amine]
228 to 230 °C and 231 to 233 °C	–	–	–	–	NC[C@H]1Cc2cc(F)cc(-c3c(Cl)cccc3Cl)c2O1 (as salt: hydrochloride) [Example 550, (−)-{[7-(2,6-dichlorophenyl)-5-fluoro-2,3-dihydro-1-benzofuran-2-yl]methyl}amine]
–	2	100	57	–	NCC1Cc2cc(Cl)cc(-c3cccc(F)c3F)c2O1 (single isomer, unassigned; (-)) [Example 245, (−)-{[5-chloro-7-(2,3-difluorophenyl)-2,3-dihydro-1-benzofuran-2-yl]methyl}amine]
–	1.1	100	3	–	NCC1Cc2cc(Cl)cc(-c3ccc(Cl)cc3Cl)c2O1 (single isomer, unassigned; (-)) [Example 252, (−)-{[5-chloro-7-(2,4-dichlorophenyl)-2,3-dihydro-1-benzofuran-2-yl]methyl}amine]
–	0.5	90	67	–	Cc1cccc(C)c1-c1cc(Cl)cc2c1OC(CN)C2 (single isomer, unassigned; (-)) [Example 261, (−)-{[5-chloro-7-(2,6-dimethylphenyl)-2,3-dihydro-1-benzofuran-2-yl]methyl}amine]
–	11	90	30	–	Cc1cc2c(c(-c3ccc(Cl)cc3Cl)c1)OC(CN)C2 (single isomer, unassigned; (-)) [Example 298, (−)-{[7-(2,4-dichlorophenyl)-5-methyl-2,3-dihydro-1-benzofuran-2-yl]methyl}amine]
–	8.5	–	149	60	CNCC1Cc2cccc(-c3ccccc3C)c2O1 (single isomer, unassigned; (-)) [Example 407, (−)-N-methyl-1-[7-(2-methylphenyl)-2,3-dihydro-1-benzofuran-2-yl]methanamine]
–	2.6	–	57	80	CNCC1Cc2cccc(-c3ccccc3Cl)c2O1 (single isomer, unassigned; (-)) [Example 411, (−)-N-methyl-1-[7-(2-chlorophenyl)-2,3-dihydro-1-benzofuran-2-yl]methanamine]
–	0.03	90	7	–	CNCC1Cc2cccc(-c3c(Cl)cccc3Cl)c2O1 (single isomer, unassigned; (-)) [Example 434, (−)-{[7-(2,6-dichlorophenyl)-2,3-dihydro-1-benzofuran-2-yl]methyl}methylamine]
–	10	70	531	–	CNCC1Cc2cc(F)cc(-c3ccccc3C)c2O1 (single isomer, unassigned; (-)) [Example 441, (−)-{[5-fluoro-7-(2-methylphenyl)-2,3-dihydro-1-benzofuran-2-yl]methyl}methylamine]
–	0.31	–	137	80	CNCC1Cc2cc(F)cc(-c3cc(Cl)ccc3Cl)c2O1 (single isomer, unassigned; (-)) [Example 451, (−)-{[5-fluoro-7-(2,5-dichlorophenyl)-2,3-dihydro-1-benzofuran-2-yl]methyl}methylamine]
–	0.34	–	132	90	CNCC1Cc2cc(C)cc(-c3cc(Cl)ccc3Cl)c2O1 (single isomer, unassigned; (-)) [Example 488, (−)-{[7-(2,5-dichlorophenyl)-5-methyl-2,3-dihydro-1-benzofuran-2-yl]methyl}methylamine]
–	0.3	–	7	90	CNCC1Cc2cc(F)cc(-c3c(C)cccc3C)c2O1 (single isomer, unassigned; (-)) [Example 559, (−)-{[7-(2,6-dimethylphenyl)-5-fluoro-2,3-dihydro-1-benzofuran-2-yl]methyl}methylamine]
–	0.35	100	2	–	CNCC1Cc2cc(OC)cc(-c3c(C)cccc3C)c2O1 (single isomer, unassigned; (-)) [Example 560, (−)-{[7-(2,6-dimethylphenyl)-5-methoxy-2,3-dihydro-1-benzofuran-2-yl]methyl}methylamine]
–	0.14	100	0.1	–	CNC[C@H]1Cc2cc(F)cc(-c3ccccc3Cl)c2O1 [Example 545, (R)-[7-(2-chloro-phenyl)-5-fluoro-2,3-dihydro-benzofuran-2-ylmethyl]-methyl-amine]
